In patent US20020062491A1, “Method of producing primary hepatocellular carcinoma-bearing model animals” (WELFIDE CORPORATION, priority 2000, published 2002):

How the values were obtained:
Assay type in all cases: in vivo, male Fischer 344 rats
GST-P-positive foci = experiment: Analysis of GST-P-stained liver specimens (GST-P-positive foci); details: for Focal area (GST-P positive) / Number of foci (GST-P positive) / Number of foci, focal size 0-0.03 mm^2 / Number of foci, focal size 0.03-0.1 mm^2 / Number of foci, focal size 0.1-0.3 mm^2 / Number of foci, focal size 0.3-1.0 mm^2 / Number of foci, focal size 1.0-3.0 mm^2 / Number of foci, focal size 3.0-10.0 mm^2 / Number of foci, focal size 10.0-30.0 mm^2 / Number of foci, focal size 30.0-100.0 mm^2 / Number of foci, focal size 100.0- mm^2: eight weeks; for GST-P-positive foci, comparison between groups in words: group 4 vs group 2, groups 5, 6 vs group 3, groups 7, 8, 9 vs group 4
Experimental: (§1) To the animals in group 1, only a CRF-1 basal diet (Oriental Yest Co., Ltd., Tokyo) was fed. To the ones in group 2, only a CDAA (Dyets Inc., USA) diet was fed. The CDAA diet, whose composition is shown in Table 1, was fed from the day before the 1st administration day of DEN (day 1) and was stored under refrigeration until use. To the ones in group 3, a CRF-1 basal diet was fed and DEN was treated. The dose of DEN was set at 95 mg/kg body weight (2 ml/kg body weight) and rats were intraperitoneally treated once a week for the first three weeks (day 1, 8 and 15). To the ones in group 4, a CDAA diet was fed and DEN was treated. To the ones in group 5, a CRF-1 basal diet was fed and given DEN and PH. In the partial hepatectomy (PH), the left lobe and the right and left sublobes of the median lobe of the liver were excised. PH was carried out on the day before the first administration of PB (day 28). To the ones in group 6, a CRF-1 basal diet was fed and given DEN, PH, and PB. The dose of PB was set at 60 mg/kg body weight (2 ml/kg body weight) and rats were intraperitoneally treated three times a week from week 5 (day 29, 32, 34, 36, 39, 41, 43, 46, 48, 50, 53, and 55). To the ones in group 7, a CDAA diet was fed and given DEN and PH. To the ones in group 8, a CDAA diet was fed and given DEN and PB. To the ones in group 9, a CDAA diet was fed and given DEN, PH, and PB. This experiment was started on Apr. 10, 1997.
Immunohistochemical staining using polyclonal antibodies against GST-P was applied to facilitate quantitative evaluation of altered hepatocellular foci. Paraffin sections were stained immunohistochemically using the labeled streptavidin-biotin-peroxidase complex (LSAB) method for binding of rabbit anti-rat GST-Yp polyclonal antibody (1:1000; BIO PREP, IRELAND). The analytical procedure for the GST-P-stained specimens was as follows. Photographs (x10) of GST-P-stained specimens of whole cross-section of liver were taken. Photographs were jointed to construct complete cross-sectional image. GST-P-positive foci (hereinafter foci) were painted out with felt pen. Cross-sectional images were processed by Image Scanner (GT-6500, SEIKO EPSONCO., Ltd., Nagano) (using EpScan Mac). The area of each focus and total cross-sectional area of each image were measured using Adobe Photoshop and NIH image. Number of foci per unit area and focal area per unit area were calculated from data on number of foci, mean focal area, total focal area, and total organ area.
All examination data were statistically evaluated by F-t test. First, equal dispersion was tested by F test (significance level 5%). Student-t test was carried out where population variance was judged to be equal, and Welch-t test where it was judged different. Bilateral significance level was set at 5% and 1%.

liver = experiment: Autopsy and histopathological examination of liver (H.E.-stained specimens); details: eight weeks; for Histopathological findings of H.E.-stained liver, in words: comparator group as stated in the value (groups 2 and 3: findings not observed in group 1 CRF-1)
Experimental: as §1
At eight weeks (day 60-63), autopsy was performed after the animals were sacrificed by exsanguination under ether anesthesia. After the liver had been excised and fixed in 10% neutral buffered formalin fixative, paraffin sections and H.E.-stained specimens were prepared and microscopic examination was carried out.

[1] = Survival, final body weight and liver weight, 8-week study (Experimental Example 1); details: mean ± spread; DEN 95 mg/kg i.p. day 1, 8, 15; PB 60 mg/kg i.p. three times a week from week 5; PH day 28
Experimental: The eighty six male 4-week-old Fischer 344 rats used in this study were obtained from Charles River Japan, Inc. (Kanagawa). Grouping of the rats was performed according to the latest body weight. The animals were housed, two/cage in a climate-controlled animal room at temperature of 24±3° C., relative humidity of 55±15%, and ventilation rate of 10-20 times/h with 12-hour illumination, and allowed free access to the prescribed diets in every group and tap water.
To the animals in group 1, only a CRF-1 basal diet (Oriental Yest Co., Ltd., Tokyo) was fed. To the ones in group 2, only a CDAA (Dyets Inc., USA) diet was fed. The CDAA diet, whose composition is shown in Table 1, was fed from the day before the 1st administration day of DEN (day 1) and was stored under refrigeration until use. To the ones in group 3, a CRF-1 basal diet was fed and DEN was treated. The dose of DEN was set at 95 mg/kg body weight (2 ml/kg body weight) and rats were intraperitoneally treated once a week for the first three weeks (day 1, 8 and 15). To the ones in group 4, a CDAA diet was fed and DEN was treated. To the ones in group 5, a CRF-1 basal diet was fed and given DEN and PH. In the partial hepatectomy (PH), the left lobe and the right and left sublobes of the median lobe of the liver were excised. […]
All examination data were statistically evaluated by F-t test. […]

CCN(CC)N=O [CRF-1+DEN+PH, Diethylnitrosoamine]
Focal area (GST-P positive) (GST-P-positive foci): 0.015 ± 0.006 CT mm^2/mm^2Liver | Number of foci (GST-P positive) (GST-P-positive foci): 0.467 ± 0.162 . CT /mm^2Liver | Number of foci, focal size 0-0.03 mm^2 (GST-P-positive foci): 0.335 ± 0.124 . CT /mm^2Liver | Number of foci, focal size 0.03-0.1 mm^2 (GST-P-positive foci): 0.105 ± 0.030 CT /mm^2Liver | Number of foci, focal size 0.1-0.3 mm^2 (GST-P-positive foci): 0.023 ± 0.014 . CT /mm^2Liver | Number of foci, focal size 0.3-1.0 mm^2 (GST-P-positive foci): 0.003 ± 0.002 CT /mm^2Liver | Number of foci, focal size 1.0-3.0 mm^2 (GST-P-positive foci): 0.000 ± 0.000 . CT /mm^2Liver | Number of foci, focal size 3.0-10.0 mm^2 (GST-P-positive foci): 0.000 ± 0.000 . CT /mm^2Liver | Number of foci, focal size 10.0-30.0 mm^2 (GST-P-positive foci): 0.000 ± 0.000 . CT /mm^2Liver | Number of foci, focal size 30.0-100.0 mm^2 (GST-P-positive foci): 0.000 ± 0.000 . CT /mm^2Liver | Number of foci, focal size 100.0- mm^2 (GST-P-positive foci): 0.000 ± 0.000 . CT /mm^2Liver | GST-P-positive foci, comparison between groups in words (GST-P-positive foci): focal areas were elevated | Altered hepatocellular foci, number of animals by grade (±, +, 2+, 3+) (liver; H.E.-stained liver): 4 | Vacuolar degeneration, number of animals by grade (±, +, 2+, 3+) (liver; H.E.-stained liver): 4 | Histopathological findings of H.E.-stained liver, in words (liver): altered hepatocellular foci were more marked than in group 3 (CRF-1+DEN) | Body weight (day 57) [1]: 263.85 ± 3.96 ** * g

CCN(CC)N=O [CRF-1+DEN, Diethylnitrosoamine]
Focal area (GST-P positive) (GST-P-positive foci): 0.006 ± 0.002 CT mm^2/mm^2Liver | Number of foci (GST-P positive) (GST-P-positive foci): 0.350 ± 0.083 CT /mm^2Liver | Number of foci, focal size 0-0.03 mm^2 (GST-P-positive foci): 0.312 ± 0.070 CT /mm^2Liver | Number of foci, focal size 0.03-0.1 mm^2 (GST-P-positive foci): 0.035 ± 0.021 CT /mm^2Liver | Number of foci, focal size 0.1-0.3 mm^2 (GST-P-positive foci): 0.003 ± 0.005 CT /mm^2Liver | Number of foci, focal size 0.3-1.0 mm^2 (GST-P-positive foci): 0.000 ± 0.000 CT /mm^2Liver | Number of foci, focal size 1.0-3.0 mm^2 (GST-P-positive foci): 0.000 ± 0.000 CT /mm^2Liver | Number of foci, focal size 3.0-10.0 mm^2 (GST-P-positive foci): 0.000 ± 0.000 CT /mm^2Liver | Number of foci, focal size 10.0-30.0 mm^2 (GST-P-positive foci): 0.000 ± 0.000 CT /mm^2Liver | Number of foci, focal size 30.0-100.0 mm^2 (GST-P-positive foci): 0.000 ± 0.000 CT /mm^2Liver | Number of foci, focal size 100.0- mm^2 (GST-P-positive foci): 0.000 ± 0.000 CT /mm^2Liver | GST-P-positive foci, comparison between groups in words (GST-P-positive foci): foci were observed | Histopathological findings of H.E.-stained liver, in words (liver): slight vacuolar degeneration and altered hepatocellular foci | Body weight (day 57) [1]: 257.52 ± 5.11 CT g
